Data published in the NIST ThermoML archive (doi:10.1007/s10765-019-2568-3).
± gives the expanded uncertainty stated by the source.

Columns and labels:
[1] = for thermal conductivity / thermal diffusivity: 100 kPa; for thermal diffusivity: Laser flash apparatus
[2] = molar heat capacity at constant pressure; settings: 100 kPa, DSC

[Fe] [iron]
Settings	mass density [kg/m3]
[1], 293 K, 101.33 kPa, Crystal 4	7849 ± 6

Settings	molar heat capacity at constant pressure, [2] [J/K/mol]	thermal conductivity, [1] [W/m/K]	thermal diffusivity, [1] [m2/s]
293.15 K, Crystal 4	24.96 ± 1.6	82.5 ± 7	2.22e-05 ± 1.2e-06
373.15 K, Crystal 4	27.53 ± 1.5	73.4 ± 5.4	1.92e-05 ± 1.1e-06
473.15 K, Crystal 4	29.54 ± 1.7	65.5 ± 4.8	1.58e-05 ± 8.2e-07
573.15 K, Crystal 4	31.38 ± 2	58.2 ± 4.5	1.31e-05 ± 6.7e-07
673.15 K, Crystal 4	34.23 ± 2.1	52 ± 4.1	1.08e-05 ± 5.5e-07
773.15 K, Crystal 4	37.36 ± 2.2	46.7 ± 3.6	8.91e-06 ± 4.6e-07
873.15 K, Crystal 4	41.66 ± 2.5	41.1 ± 3	7.06e-06 ± 3.5e-07
973.15 K, Crystal 4	48.64 ± 3.4	36.2 ± 3.2	5.18e-06 ± 2.8e-07
1073.2 K, Crystal 3	52.72 ± 4	31.5 ± 2.8	4.49e-06 ± 2.4e-07
1173.2 K, Crystal 3	42.22 ± 3.3	30 ± 3	5.27e-06 ± 2.6e-07
1273.2 K, Crystal 2	33.62 ± 2.4	28.4 ± 2.8	6.33e-06 ± 3.5e-07
